Laboratory results taken from patent publication US20100041590A1, “Compounds” (priority 2006, published 2010).
Counter-ions that a name gives are not always drawn.

Target: T1, SCD (SCD-containing rat microsomes) (Rattus norvegicus, UniProt P07308)
T1 construct: SCD-containing rat microsomes (2 μg protein); from tissue
T1 sequence (P07308 1-358): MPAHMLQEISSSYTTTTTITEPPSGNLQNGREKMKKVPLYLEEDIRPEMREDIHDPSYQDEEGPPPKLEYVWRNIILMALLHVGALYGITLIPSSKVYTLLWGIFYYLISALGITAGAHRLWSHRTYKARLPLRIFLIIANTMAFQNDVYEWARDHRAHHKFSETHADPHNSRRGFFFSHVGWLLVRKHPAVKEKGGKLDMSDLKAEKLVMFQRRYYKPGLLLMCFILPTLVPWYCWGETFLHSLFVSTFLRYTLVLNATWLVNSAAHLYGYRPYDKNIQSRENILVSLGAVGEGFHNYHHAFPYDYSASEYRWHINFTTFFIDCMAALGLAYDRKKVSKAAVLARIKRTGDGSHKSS
Test: in vitro assay for SCD activity based on production of [3H]H2O from [9,10-3H] stearoyl Coenzyme A
Format: biochemical
Details: SCD-containing rat microsomes (2 μg protein), substrate 1 μM, 6 min incubation, 5 min preincubation with compound; read-out: average pIC50 value, in vitro assay for SCD activity (converted)
Description: The compounds of the present invention may be analysed in vitro for SCD activity using an assay based on the production of [^3H]H2O, which is released during the enzyme-catalyzed generation of the monounsaturated fatty acyl CoA product. The assay is performed in a 96-well filtration plates. The titrated substrate used in the assay is the [9,10-^3H] stearoyl Coenzyme A. After incubation for 6 minutes of SCD-containing rat microsomes (2 μg protein) and substrate (1 μM), the labelled fatty acid acyl-CoA species and microsomes are absorbed with charcoal and separated from [^3H]H2O by centrifugation. The formation of [^3H]H2O is used as a measure of SCD activity. Compounds at concentrations starting at 10 μM to 0.1 nM or vehicle (DMSO) are preincubated for 5 minutes with the microsomes before addition of the substrate. The concentration-responses are fitted with sigmoidal curves to obtain IC50 values.

CC(C)COc1ccc(Cl)cc1Cn1nc(NC(=O)c2ccc3c(c2)CCNC3)cc1C1CC1 [Example 2, N-[1-({5-chloro-2-[(2-methylpropyl)oxy]phenyl}methyl)-5-cyclopropyl-1H-pyrazol-3-yl]-1,2,3,4-tetrahydro-6-isoquinolinecarboxamide hydrochloride]
IC50: < 3.16 µM

CC(C)COc1ccc(Cl)cc1Cn1nc(C(=O)Nc2ccc3c(c2)CCNC3)cc1C1CC1 [1-({5-chloro-2-[(2-methylpropyl)oxy]phenyl}methyl)-5-cyclopropyl-N-(1,2,3,4-tetrahydro-6-isoquinolinyl)-1H-pyrazole-3-carboxamide hydrochloride]
IC50: > 10 µM

CCc1cc(NC(=O)c2ccc3c(c2)CCNC3)nn1Cc1cc(Cl)ccc1OCC(C)C [Example 1, N-[1-({5-chloro-2-[(2-methylpropyl)oxy]phenyl}methyl)-5-ethyl-1H-pyrazol-3-yl]-1,2,3,4-tetrahydro-6-isoquinolinecarboxamide hydrochloride]
IC50: < 3.16 µM

CCCc1cc(C(=O)Nc2ccc3c(c2)CCNC3)nn1Cc1cc(Cl)ccc1OCC(C)C [1-({5-chloro-2-[(2-methylpropyl)oxy]phenyl}methyl)-5-propyl-N-(1,2,3,4-tetrahydro-6-isoquinolinyl)-1H-pyrazole-3-carboxamide hydrochloride]
IC50: 3.16 to 10 µM
